Laboratory results taken from PubChem BioAssay (NCI).
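Grown in 96-well plates, cells were treated for 48 hours with each compound at five concentrations. Insufficient inhibition: endpoint recorded as highest concentration tested. GI50 = concentration required for 50% inhibition of growth. TGI denotes the concentration required for complete inhibition of growth.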

Columns and labels:
Assay in all cases: NCI anticancer screen, dose series, 48 h
[1] = system: SR leukemia
[2] = system: OVCAR-5 ovarian
[3] = system: MALME-3M melanoma
[4] = system: MOLT-4 leukemia
[5] = system: COLO 205 colon
[6] = system: SF-295 CNS
[7] = system: SF-268 CNS
[8] = system: BT-549 breast
[9] = system: OVCAR-3 ovarian
[10] = system: A498 renal

Structure (SMILES) | GI50 [1] | TGI [1] | GI50 [2] | TGI [2] | GI50 [3] | TGI [3] | GI50 [4] | TGI [4] | GI50 [5] | TGI [5] | GI50 [6] | TGI [6] | GI50 [7] | TGI [7] | GI50 [8] | TGI [8] | GI50 [9] | TGI [9] | GI50 [10] | TGI [10]
COC(=O)C(Br)(C(=O)OC)C(Br)C(Br)C(Br)c1ccccc1 (centres undefined) | 2.8 µM | 9.71 µM | 3.3 µM | 13 µM | 2.09 µM | 4.46 µM | 4.24 µM | 19.7 µM | 1.87 µM | 3.56 µM | 17 µM | 33.3 µM | 5.5 µM | 16.5 µM | 12.4 µM | 25.3 µM | 1.72 µM | 3.11 µM | 15.5 µM | 29.4 µM
C=C(C)[C@@H]1CC[C@]2(COC(=O)c3ccccc3C(=O)O)CC[C@]3(C)[C@H](CC[C@@H]4[C@@]5(C)CC[C@H](OC(=O)c6ccccc6C(=O)O)C(C)(C)[C@@H]5CC[C@]43C)[C@@H]12 | 27.3 µM | 74.1 µM | > 100 µM | > 100 µM | 60.8 µM | > 100 µM | 56.7 µM | > 100 µM | > 100 µM | > 100 µM | 24.1 µM | > 100 µM | 26.6 µM | > 100 µM | 33.3 µM | > 100 µM | 17.5 µM | 49.3 µM | 40.6 µM | > 100 µM
NC1=C(/C(N)=N/O)C(c2ccccc2)c2ccc3ccccc3c2O1 (centres undefined) | 0.239 µM | > 100 µM | 1.19 µM | > 100 µM | 2.29 µM | > 76.1 µM | 0.496 µM | > 100 µM | 0.456 µM | 7.26 µM | 0.321 µM | 7.06 µM | 1.09 µM | > 72.6 µM | 1.11 µM | 69.6 µM | 0.225 µM | 0.675 µM | 0.168 µM | 0.72 µM
Cn1c(=S)c2[nH]c(SCc3cccnc3)nc2n(C)c1=O |  | > 100 µM |  | > 100 µM |  | > 100 µM |  | > 100 µM |  | > 100 µM |  | > 100 µM |  | > 100 µM |  | > 100 µM |  | > 100 µM |  | > 100 µM
COc1ccc(C(=O)c2cc(C)c(OC)c(C)c2)c(OC)c1OC(=O)C(Cl)Cl | 0.0181 µM | > 100 µM | 5.51 µM | > 100 µM | 0.0714 µM | > 100 µM | 0.0436 µM | > 100 µM | 6.74 µM | 32.4 µM | 0.164 µM | > 25.1 µM | 0.198 µM | > 100 µM | 0.0293 µM | 1.7 µM | 0.0353 µM |  | 1.74 µM | 5.89 µM
COc1ccc2c(ccc3oc([N+](=O)[O-])cc32)c1 | 0.0748 µM | 17.6 µM | 0.364 µM | 4.74 µM | 0.137 µM | 0.314 µM | 0.0378 µM | 2.69 µM | 0.172 µM | 0.389 µM | 0.302 µM | 1.9 µM | 0.176 µM | 1.87 µM | 0.187 µM | 0.521 µM | 0.225 µM | 0.57 µM | 0.0852 µM | 0.305 µM
COc1cc(-c2cn(-c3ccc(F)cc3)c(=O)[nH]2)cc(OC)c1OC | > 100 µM | > 100 µM | > 100 µM | > 100 µM | > 100 µM | > 100 µM | > 100 µM | > 100 µM | > 100 µM | > 100 µM | > 100 µM | > 100 µM | > 100 µM | > 100 µM | > 100 µM | > 100 µM | > 100 µM | > 100 µM | > 100 µM | > 100 µM
O=C1Nc2cc(-c3ccc(O)cc3)ccc2/C1=C/c1ccc[nH]1 | 0.0309 µM | > 33.7 µM | 0.588 µM | > 25 µM | 0.474 µM | 5.28 µM | 0.158 µM | > 32.5 µM | 2.78 µM | 12.5 µM | 0.266 µM | > 40.5 µM | 0.44 µM | > 100 µM | 0.396 µM | 13.3 µM | 0.348 µM | 3.99 µM | 1.53 µM | 5.05 µM
Cc1cc(O)cc(-c2nn(C)cc2-c2cc(N3CCOCC3)nc(-c3cccnc3)n2)c1 | 1.22 µM | > 100 µM | 12.2 µM | > 100 µM | 11.6 µM | 40.3 µM | 3.65 µM | > 100 µM | 2.9 µM | 9.57 µM | 3.28 µM | 14.6 µM | 7.29 µM | > 100 µM | 3.17 µM | 20.8 µM | 2.48 µM | 12.5 µM | 1.06 µM | 3.24 µM
COc1ccc(OC)c(-c2nc3sc(C)cn3c2/C=C2\C(=O)N(C)c3ccccc32)c1 | 1.89 µM | 18.5 µM | 44.9 µM | > 100 µM | 28.5 µM | 70.1 µM | 15.9 µM | 59 µM | 25.8 µM | 68 µM | 19.6 µM | 46.7 µM | 19.7 µM | 63.6 µM | 26.2 µM | 81.6 µM | 23.6 µM | 62.3 µM | 29.3 µM | 70.6 µM
CCOC(=O)CC1C(CNC(=O)NC)OC(n2cnc3c(NC(=O)Nc4ccccc4)ncnc32)C1O[Si](C)(C)C(C)(C)C (centres undefined) | 2.23 µM | 7.07 µM | 31.1 µM | > 100 µM | 10.3 µM | > 100 µM | 2.39 µM | 23.3 µM | 3.84 µM | > 100 µM | 5.73 µM | > 100 µM | 6.53 µM | 27 µM | > 100 µM | > 100 µM | 4.59 µM | 17.2 µM | 3.35 µM | 17.1 µM
COC(=O)C[C@@H]1CC=CC(=O)/C1=C(O)/C=C/c1ccccc1 | 0.275 µM |  | 1.84 µM | 4.57 µM | 1.56 µM | 3.33 µM | 1.68 µM | 5.46 µM | 0.401 µM | 1.46 µM | 2.05 µM | 4.42 µM | 1.37 µM | 3.75 µM | 1.48 µM | 2.86 µM | 0.3 µM | 0.93 µM | 1.87 µM | 3.82 µM
C#CCn1c2c(c3ccccc3c1=O)C(=O)c1ccccc1-2 |  | > 100 µM |  | > 100 µM |  | > 100 µM |  | > 100 µM |  | > 100 µM |  | 94.3 µM |  | 34.1 µM |  | > 100 µM |  | 29.6 µM |  | 82.9 µM
COc1ccc(-c2cncn2-c2ccc(-c3nc4cc(OC)c(OC)c(OC)c4s3)cc2)cc1N | 3.43 µM | > 100 µM | > 100 µM | > 100 µM | 2.48 µM | 9.97 µM | 4 µM | > 100 µM | 2.94 µM | 20.6 µM | 4.44 µM | > 100 µM | 47 µM | > 100 µM | 6.21 µM | > 100 µM | 5.18 µM | > 100 µM | 4.83 µM | > 100 µM
N#CC1=C(N)Oc2c(ccc3cccnc23)C1c1ccccc1 (centres undefined) |  | 29 µM |  | > 100 µM |  | > 67.5 µM |  | 36.9 µM |  | 13.2 µM |  | > 21.9 µM |  | > 100 µM | 1.73 µM | 23.6 µM |  | 2.95 µM |  | 16.9 µM
O=C(Oc1c(Cl)c(Cl)c(Cl)c(Cl)c1Cl)C1CCCN1C(=O)OCc1ccccc1 (centres undefined) | 3.82 µM | 15.7 µM | 4.28 µM | 17.1 µM | 3.62 µM | 11.4 µM | 3.1 µM | 9.07 µM | 2.01 µM | 3.88 µM | 2.75 µM | 8.47 µM | 4 µM | 15.6 µM | 3.75 µM | 13.1 µM | 3.27 µM | 9.84 µM | 1.99 µM | 5.81 µM
Clc1ccc2c(NCCNc3nc(N4CCCCC4)nc4ccccc34)ccnc2c1 | 1.23 µM | 4.53 µM | 2.68 µM | 10.1 µM | 2.05 µM | 4.05 µM | 2.29 µM | 11.8 µM | 1.19 µM | 2.84 µM | 1.71 µM | 3.23 µM | 2.39 µM | 7.33 µM | 2.01 µM | 4.68 µM | 1.75 µM | 3.65 µM | 10.2 µM | 22.1 µM
CN1CCN(c2ccc(NC(=O)c3cncnc3Nc3ccc4c(ccn4Cc4cccc(F)c4)c3)cc2)CC1 | 0.655 µM | 1.96 µM | 3.42 µM | 7.32 µM | 0.524 µM | 0.976 µM | 0.922 µM | 3.14 µM | 0.905 µM | 2.64 µM | 5.41 µM | 10.5 µM | 4.3 µM | 9.17 µM | 5.23 µM | 9.78 µM | 4.08 µM | 8.48 µM | 2.16 µM | 6.76 µM
CCCCc1n(Cc2ccc3ccccc3n2)cc[n+]1Cc1ccc2ccccc2c1 | 0.456 µM | 1.95 µM | 1.54 µM | 8.48 µM | 0.643 µM | 2.21 µM | 1.06 µM | 3.61 µM | 0.502 µM | 1.79 µM | 1.37 µM | 4.4 µM | 0.984 µM | 2.92 µM | 0.648 µM | 1.74 µM | 0.541 µM | 2.03 µM | 1.18 µM | 4.45 µM
